Consider two molecules from patent US5244920A, “Pharmaceutical compositions having therapeutical activity based on mercaptoethansulphonic arginine salt” (Schering Spa, priority 1985, dated 1993).

Structures are written as SMILES.

The conditions of data set [1]: background statement; cited from earlier work.
Another data set in a line: solubility in water. It counts as physicochemical.
The nature of a further data set: pH in water solution. Format: physicochemical. The settings on record: 10% aqueous solution.
A further data set deals with urinary Trp metabolites. Briefly: in vivo trial: urinary tryptophan and metabolites in bladder cancer patients (HPLC in reverse phase). On the procedure:
24 bladder cancer patients were randomized into two groups to receive MESNA-Arginine (per os, 800 mg/daily) or placebo. In both groups 24 hours before and after administration of the drug (MESNA-Arginine, or Placebo), urinary Kynurenine (Ky), Xanthurenic acid (XA), 5-hydroxy-indoleacetic acid (5-HIAA), AA, Trp and 3-OH-AA were determined by HPLC in reverse phase (Rocchini P., Bizzari M., Pompei M; Ciani D., Panicucci M. and Gallo S. Urinary determination of Tryptophan and related metabolites through HPLC in reverse-phase. Rass. Chimi. 1:15-18, 1984.)

The mark [2] stands for this setting: per os, 800 mg/daily, after 24 hours, P-0.001.
Where [3] appears, read: per os, 800 mg/daily, after 24 hours, listed as MESNA-Arginine.
The mark [4] stands for this setting: per os, 800 mg/daily, after 24 hours, listed as MESNA-arginine.

Take `O=S(=O)(O)CCS` [MESNA, mercaptoethansulphonic acid]: in data set [1], the “instability of the compound in the free state” value was “high instability”.
As for `O=S(=O)(O)CCS` [Example 2, arginine mercaptoethansulphonate], the solubility in water entry in the data set “solubility in water” was “perfect”. Further, the “pH in 10% water solution” value in the data set “pH in water solution” stood at 6.7. Moreover, the “cerebral uptake of Trp” value with urinary Trp metabolites (inferred from rate excretion of 5-HIAA) is “no variations”. For the same molecule, in the data set on urinary Trp metabolites (per os, 800 mg/daily, after 24 hours), the urinary tryptophan levels result is “slight reduction”. Besides, in the data set on urinary Trp metabolites (setting [2]), the “reduction of urinary 3-OH-anthranilic acid” value is recorded as -71% and the “reduction of urinary anthranilic acid” value was -61%. Further, in the data set on urinary Trp metabolites (setting [3]), the “urinary 5-HIAA” value is given as “no variation”, the “urinary kynurenine (Ky)” value was “no variation” and the “urinary xanthurenic acid (XA)” value was “no variation”. Also, in the data set with urinary Trp metabolites (setting [4]), the “urinary 5-HIAA” value was “substantial invariance”, the “urinary kynurenine (Ky)” value was “unchanged” and the “urinary xanthurenic acid (XA)” value is on record as “unchanged”.
